Test results reported in patent publication US11844801B2, “Oral compositions of MK2 pathway inhibitor for treatment of immune conditions” (priority 2020, dated 2023).
Values joined by “and” are separate entries in the source; they are usually repeats but may differ in a detail not shown here. Equal values may be shown once. Read-outs that look alike come from different tables or passages of the source. Marks after values point to notes of the source that are not given here.

Assay: Phase 1 SAD/MAD pharmacokinetics of oral ATI-450 in healthy subjects (incl. 80/120 mg BID extension)
Type: in vivo, human
Conditions: for Cmax: read-out: Cmax; for concentration at 2 day: day 2; for concentration at 3 day: day 3; for concentration at 4 day: day 4; for concentration at 5 day: day 5; for concentration at 6 day: day 6; for Vd/F: read-out: Vss/F
Experimental: Study Design. […] Single ascending dose (SAD) cohorts. […] Multiple ascending dose (MAD) cohorts. […] Blood Sampling and Bioanalysis. Two-milliliter blood samples were collected for PK analysis. […] The lower limit of quantification was 0.500 ng/mL. Pharmacokinetics. […] Bioanalysis Assay of ATI-450. Sample processing was performed by protein precipitation using a 50.0-μL sample volume. […] A triple quadrupole 6500 mass spectrometer equipped with a turbo-ion spray source was used for detection in positive ion mode. […] A linear calibration curve ranging from 0.500 to 500 ng/mL with a 1/x^2 weighting factor was used. The method was minimally required to have intra- and inter-day precision (coefficients of variation) for pooled plasma quality control samples of ≤15% except at the lower limit of quantitation, where ≤20% was acceptable. The calculated concentrations (both inter- and intra-day) were required to be within 15% of nominal at all concentrations except the lower limit of quantitation, where up to 20% deviation from nominal was acceptable. The precision and accuracy of the method exceeded these minimum requirements for assay validation.

[1] = both sexes, human, plasma, oral, 80 mg, 80 mg BID, read-out: Ctrough
[2] = both sexes, human, plasma, oral, 80 mg, 80 mg BID, day 7
[3] = both sexes, human, plasma, oral, 120 mg, 120 mg BID, day 1
[4] = both sexes, human, plasma, oral, 120 mg, 120 mg BID, read-out: Ctrough
[5] = both sexes, human, plasma, oral, 120 mg, 120 mg BID, day 7
[6] = both sexes, human, plasma, po, 10 mg, single oral dose 10 mg, fasted
[7] = both sexes, human, plasma, po, 30 mg, single oral dose 30 mg, fasted
[8] = both sexes, human, plasma, po, 50 mg, single oral dose 50 mg, fasted
[9] = both sexes, human, plasma, po, 100 mg, single oral dose 100 mg, fasted
[10] = both sexes, human, plasma, po, 100 mg, single oral dose 100 mg, fed (high-fat, high-calorie breakfast)
[11] = single oral dose 100 mg, fasted

Cc1cnc(-c2ccnc(C(C)(C)O)n2)cc1-n1c(C)cc(OCc2ncc(F)cc2F)c(Cl)c1=O (single isomer, unassigned) [ATI-450, 3-chloro-4-((3,5-difluoropyridin-2-yl)methoxy)-2′-(2-(2-hydroxypropan-2-yl)pyrimidin-4-yl)-5′,6-dimethyl-2H-[1,4′-bipyridin]-2-one]
Cmax (both sexes, human, plasma, oral, 80 mg, 80 mg BID, day 1): 0.258 ± 0.0838 µg/mL | Tmax (both sexes, human, plasma, oral, 80 mg, 80 mg BID, day 1, read-out: Tmax, median (min, max)): 2 h | concentration at 2 day [1]: 0.176 ± 0.0675 µg/mL | concentration at 3 day [1]: 0.149 ± 0.054 µg/mL | concentration at 4 day [1]: 0.148 ± 0.0599 µg/mL | concentration at 5 day [1]: 0.145 ± 0.0783 µg/mL | concentration at 6 day [1]: 0.144 ± 0.0649 µg/mL | AUC [2]: 2.55 ± 0.73 µg·h/mL | AUC(0-t) (both sexes, human, plasma, oral, 80 mg, 80 mg BID, day 7, read-out: AUC0-24, total daily exposure calculated as AUC0-12 × 2): 5.1 µg·h/mL | AUC(0-t) (both sexes, human, plasma, oral, 80 mg, 80 mg BID, day 7, read-out: AUC0-t): 4.03 ± 1.15 µg·h/mL | concentration at 7 day (both sexes, human, plasma, oral, 80 mg, 80 mg BID, day 7, read-out: Cavg): 0.212 ± 0.0608 µg/mL | Cmax [2]: 0.389 µg/mL | concentration at 7 day (both sexes, human, plasma, oral, 80 mg, 80 mg BID, day 7, read-out: Cmin): 0.101 ± 0.0398 µg/mL | Tmax (both sexes, human, plasma, oral, 80 mg, 80 mg BID, day 7, read-out: Tmax, median (min, max)): 2 h | half-life (both sexes, human, plasma, oral, 80 mg, 80 mg BID, day 7, read-out: t1/2 (converted)): 14.3 ± 5.3 h | concentration at 7 day (both sexes, human, plasma, oral, 120 mg BID, day 7, read-out: Ctrough): 0.156 µg/mL | AUC [3]: 2.32 ± 0.383 µg·h/mL | AUC(0-t) (both sexes, human, plasma, oral, 120 mg, 120 mg BID, day 1, read-out: AUC0-t): 2.31 ± 0.38 µg·h/mL | Cmax [3]: 0.379 ± 0.0606 µg/mL | Tmax (both sexes, human, plasma, oral, 120 mg, 120 mg BID, day 1, read-out: Tmax, median (min, max)): 3 h | concentration at 2 day [4]: 0.152 ± 0.0933 µg/mL | concentration at 3 day [4]: 0.144 ± 0.0988 µg/mL | concentration at 4 day [4]: 0.126 ± 0.0844 µg/mL | concentration at 5 day [4]: 0.145 ± 0.0675 µg/mL | concentration at 6 day [4]: 0.161 ± 0.0875 µg/mL | AUC [5]: 2.58 ± 1.03 µg·h/mL | AUC(0-t) (both sexes, human, plasma, oral, 120 mg, 120 mg BID, day 7, read-out: AUC0-24, total daily exposure calculated as AUC0-12 × 2): 5.16 µg·h/mL | AUC(0-t) (both sexes, human, plasma, oral, 120 mg, 120 mg BID, day 7, read-out: AUC0-t): 4.17 ± 2.09 µg·h/mL | concentration at 7 day (both sexes, human, plasma, oral, 120 mg, 120 mg BID, day 7, read-out: Cavg): 0.215 ± 0.0859 µg/mL | Cmax [5]: 0.416 µg/mL | concentration at 7 day (both sexes, human, plasma, oral, 120 mg, 120 mg BID, day 7, read-out: Cmin): 0.0961 ± 0.0641 µg/mL | Tmax (both sexes, human, plasma, oral, 120 mg, 120 mg BID, day 7, read-out: Tmax, median (min, max)): 2 h | half-life (both sexes, human, plasma, oral, 120 mg, 120 mg BID, day 7, read-out: t1/2 (converted)): 8.7 ± 2.4 h | half-life (both sexes, human, plasma, oral, MAD cohorts 10-50 mg BID, day 7, read-out: terminal half-life (mean t1/2), range over cohorts): 9 to 12 h | half-life (both sexes, human, plasma, oral, SAD cohorts, fasted, read-out: mean t1/2, range across dose cohorts): 9 to 11 h | Tmax (both sexes, human, plasma, oral, SAD cohorts, fasted, read-out: median Tmax, range across dose cohorts): 2 to 4 h | Vd/F (both sexes, human, plasma, oral, 50 mg BID, day 7): 586 ± 163 L | Vd/F (both sexes, human, plasma, oral, 80 mg BID, day 7): 690 ± 294 L | Vd/F (both sexes, human, plasma, oral, 120 mg BID, day 7): 621 ± 183 L | AUC(0-inf) [6]: 0.285 µg·h/mL | Cmax [6]: 0.0394 µg/mL | Tmax (both sexes, human, plasma, po, 10 mg, single oral dose 10 mg, fasted, read-out: Tmax, median (min, max)): 2 h | half-life (both sexes, human, plasma, po, 10 mg, single oral dose 10 mg, fasted, read-out: t1/2 (converted)): 8.5 h | AUC(0-inf) [7]: 1.1 µg·h/mL | Cmax [7]: 0.122 µg/mL | Tmax (both sexes, human, plasma, po, 30 mg, single oral dose 30 mg, fasted, read-out: Tmax, median (min, max)): 4 h | half-life (both sexes, human, plasma, po, 30 mg, single oral dose 30 mg, fasted, read-out: t1/2 (converted)): 10.7 h | AUC(0-inf) [8]: 1.46 µg·h/mL | Cmax [8]: 0.161 µg/mL | Tmax (both sexes, human, plasma, po, 50 mg, single oral dose 50 mg, fasted, read-out: Tmax, median (min, max)): 3 h | half-life (both sexes, human, plasma, po, 50 mg, single oral dose 50 mg, fasted, read-out: t1/2 (converted)): 9.1 h | AUC(0-inf) [9]: 3.65 µg·h/mL | Cmax [9]: 0.426 µg/mL | Tmax (both sexes, human, plasma, po, 100 mg, single oral dose 100 mg, fasted, read-out: Tmax, median (min, max)): 2 h | half-life (both sexes, human, plasma, po, 100 mg, single oral dose 100 mg, fasted, read-out: t1/2 (converted)): 11.2 h | AUC(0-inf) [10]: 4.1 µg·h/mL | Cmax [10]: 0.371 µg/mL | Tmax (both sexes, human, plasma, po, 100 mg, single oral dose 100 mg, fed (high-fat, high-calorie breakfast), read-out: Tmax, median (min, max)): 6 h | half-life (both sexes, human, plasma, po, 100 mg, single oral dose 100 mg, fed (high-fat, high-calorie breakfast), read-out: t1/2 (converted)): 6.3 h | AUC(0-t) (single oral dose 10 mg, fasted): 0.2763 ± 0.0778 µg·h/mL | CL/F (single oral dose 10 mg, fasted): 37.0 ± 8.8 L/h | Tmax, median (min, max) (single oral dose 10 mg, fasted): 2.0 (2.0-4.0) h | Vz/F (single oral dose 10 mg, fasted): 430.2 ± 124.0 L | t1/2 (single oral dose 10 mg, fasted): 8.5 ± 3.2 h | AUC(0-t) (single oral dose 30 mg, fasted): 1074.0 ± 243.5^a h*ng/mL | CL/F (single oral dose 30 mg, fasted): 28.4 ± 7.1^a L/h | Tmax, median (min, max) (single oral dose 30 mg, fasted): 4.0 (2.0-4.1) h | Vz/F (single oral dose 30 mg, fasted): 451.4 ± 201.5^a L | AUC(0-t) (single oral dose 50 mg, fasted): 1.43 ± 0.254 µg·h/mL | CL/F (single oral dose 50 mg, fasted): 35.1 ± 6.3 L/h | Tmax, median (min, max) (single oral dose 50 mg, fasted): 3.0 (2.0-4.0) h | Vz/F (single oral dose 50 mg, fasted): 445.0 ± 94.7 L | t1/2 (single oral dose 50 mg, fasted): 9.1 ± 2.4 h | AUC(0-t) [11]: 3.4898 ± 0.4757 µg·h/mL | CL/F [11]: 27.9 ± 4.3 L/h | Tmax, median (min, max) [11]: 2.0 (2.0, 4.0) h and 2.0 (2.0-4.0) h | Vz/F [11]: 439.8 ± 189.7 L | t1/2 [11]: 11.2 ± 5.8 h | Tmax, median (min, max) (single oral dose 100 mg, fed (high-fat, high-calorie breakfast)): 6.0 (4.0, 12.0) h | steady state reached by day (twice-daily administration, all dose levels 10-50 mg): ≤ 2 days
